Patent publication US20070128217A1 (priority 2003, published 2007)

Columns and labels:
[1] = tested on: antibodies in sera from SARS patients (sera 1a, 1b, 2, 6, 37, 62, London, SARS-yellow, SARS-green); format: binding, human; parameters: Binding of serum 6 to linear peptides of protein X1 of SARS-CoV Urbani / Binding of serum 37 to linear peptides of protein X1 of SARS-CoV Urbani / Binding of serum 6 to looped/cyclic peptide (PEPSCAN-ELISA) / Binding of serum 37 to looped/cyclic peptide (PEPSCAN-ELISA) / Binding of serum 37 to looped/cyclic peptides of protein X1 of SARS-CoV Urbani / Binding of serum 6 to linear peptides of protein X2 / Binding of serum 37 to linear peptides of protein X2 / Binding of serum 37 to looped/cyclic peptides of protein X2 of SARS-CoV Urbani / Binding of serum 6 to linear peptides of protein M of SARS-CoV Urbani / Binding of serum 37 to linear peptides of protein M of SARS-CoV Urbani / Binding of serum 6 to looped/cyclic peptides of protein M of SARS-CoV Urbani / Binding of serum 37 to looped/cyclic peptides of protein M of SARS-CoV Urbani / Binding of serum 6 to linear peptides of protein X3 of SARS-CoV Urbani / Binding of serum 37 to linear peptides of protein X3 of SARS-CoV Urbani / Binding of serum 37 to looped/cyclic peptides of protein X3 of SARS-CoV Urbani / Binding of serum 6 to linear peptides of protein X4 of SARS-CoV Urbani / Binding of serum 37 to linear peptides of protein X4 of SARS-CoV Urbani / Binding of serum 37 to looped/cyclic peptides of protein X4 of SARS-CoV Urbani / Binding of serum 6 to linear peptides of protein X5 of SARS-CoV Urbani / Binding of serum 37 to linear peptides of protein X5 of SARS-CoV Urbani / Binding of serum 37 to looped/cyclic peptides of protein X5 of SARS-CoV Urbani / Binding of serum 6 to linear peptides of protein N of SARS-CoV Urbani / Binding of serum 37 to linear peptides of protein N of SARS-CoV Urbani / Binding of serum 6 to linear peptide (PEPSCAN-ELISA) / Binding of serum 1a to looped/cyclic peptides of protein N of SARS-CoV Urbani / Binding of serum 1b to looped/cyclic peptides of protein N of SARS-CoV Urbani / Binding of serum 2 to looped/cyclic peptides of protein N of SARS-CoV Urbani / Binding of serum 6 to looped/cyclic peptides of protein N of SARS-CoV Urbani / Binding of serum 37 to looped/cyclic peptides of protein N of SARS-CoV Urbani / Binding of serum 62 to looped/cyclic peptides of protein N of SARS-CoV Urbani / Binding of serum London to looped/cyclic peptides of protein N of SARS-CoV Urbani / Binding of serum SARS-green to looped/cyclic peptides of protein N of SARS-CoV Urbani: unit not given here
[2] = tested on: control sera (pooled serum of ten healthy LUMC hospital workers; commercial negative donor pooled serum from the Dutch bloodbank); format: binding, human; parameters: Binding of Control serum LUMC to linear peptides / Binding of Control serum Blood-bank to linear peptides / Binding of Control serum LUMC to looped peptides / Binding of Control Serum Blood-Bank to Looped peptides / Binding of Control serum LUMC to linear peptides of the protein M of SARS-CoV Urbani / Binding of Control serum Blood-bank to linear peptides of the protein M of SARS-CoV Urbani / Binding of Control serum LUMC to looped peptides of the protein M of SARS-CoV Urbani / Binding of Control Serum Blood-Bank to Looped peptides of the protein M of SARS-CoV Urbani: unit not given here
[3] = tested on: rabbit serum obtained by immunizing a rabbit with the SARS-CoV strain Frankfurt 1; format: binding; parameters: Binding of a rabbit serum to linear peptides / Binding of a rabbit serum to looped peptides / Rabbit serum linear peptides / Rabbit serum looped peptides / Binding of a rabbit serum to linear peptides of protein N of SARS-CoV Urbani (Rabbit serum linear peptides) / Binding of a rabbit serum to looped/cyclic peptides of protein N of SARS-CoV Urbani (Rabbit serum looped peptides): unit not given here

Sequence	Binding of serum 1a to linear peptides of protein X2 [1]	Binding of serum 1a to looped/cyclic peptides of protein X2 of SARS-CoV Urbani [1]	Binding of serum 1b to linear peptides of protein X2 [1]	Binding of serum 1b to looped/cyclic peptides of protein X2 of SARS-CoV Urbani [1]	Binding of serum 2 to linear peptides of protein X2 [1]	Binding of serum 2 to looped/cyclic peptides of protein X2 of SARS-CoV Urbani [1]	Binding of serum 6 to linear peptides of protein X2 [1]	Binding of serum 6 to looped/cyclic peptides of protein X2 of SARS-CoV Urbani [1]	Binding of serum 37 to linear peptides of protein X2 [1]	Binding of serum 37 to looped/cyclic peptides of protein X2 of SARS-CoV Urbani [1]	Binding of serum 62 to linear peptides of protein X2 [1]	Binding of serum 62 to looped/cyclic peptides of protein X2 of SARS-CoV Urbani [1]	Binding of serum London to linear peptides of protein X2 [1]	Binding of serum London to looped/cyclic peptides of protein X2 of SARS-CoV Urbani [1]	Binding of serum SARS-green to linear peptides of protein X2 [1]	Binding of serum SARS-green to looped/cyclic peptides of protein X2 of SARS-CoV Urbani [1]	Binding of Control Serum Blood-Bank to Looped peptides [2]	Binding of Control serum Blood-bank to linear peptides [2]	Binding of Control serum LUMC to linear peptides [2]	Binding of Control serum LUMC to looped peptides [2]	further results
TTSLSLHKLLQTLVL	0.5	0.5	0.5	0.4	0.3	0.4	0.5	0.5	0.5	0.5	0.5	0.6	0.5	1.3	0.6	0.3	0.6	0.6	0.4	0.6	Binding of serum SARS-yellow to linear peptides of protein X2 [1]: 0.3; Binding of serum SARS-yellow to looped/cyclic peptides of protein X2 of SARS-CoV Urbani [1]: 0.5; Binding of a rabbit serum to linear peptides [3]: 0.1; Binding of a rabbit serum to looped peptides [3]: 0.4
TVSQIQLSLLKVTAF	0.5	0.5	0.4	0.5	0.4	0.4	0.5	1.0	0.6	0.4	0.4	0.6	0.3	1.4	0.1	0.4	0.7	0.5	0.6	0.7	Binding of serum SARS-yellow to linear peptides of protein X2 [1]: 0.6; Binding of serum SARS-yellow to looped/cyclic peptides of protein X2 of SARS-CoV Urbani [1]: 0.7; Binding of a rabbit serum to linear peptides [3]: 0.6; Binding of a rabbit serum to looped peptides [3]: 0.5
TVYHITVSQIQLSLL	0.6	0.4	0.5	0.4	0.5	0.3	0.4	0.2	0.6	0.4	0.4	0.5	0.4	0.2	0.1	0.2	0.6	0.5	0.5	0.5	Binding of serum SARS-yellow to linear peptides of protein X2 [1]: 0.7; Binding of serum SARS-yellow to looped/cyclic peptides of protein X2 of SARS-CoV Urbani [1]: 0.3; Binding of a rabbit serum to linear peptides [3]: 0.7; Binding of a rabbit serum to looped peptides [3]: 0.3
TYSTAWLCALGKVLP																	0.5	0.9	0.5	0.6	Binding of serum 1a to linear peptides of protein X5 of SARS-CoV Urbani [1]: 0.8; Binding of serum 1a to looped/cyclic peptides of protein X5 of SARS-CoV Urbani [1]: 0.5; Binding of serum 1b to linear peptides of protein X5 of SARS-CoV Urbani [1]: 0.6; Binding of serum 1b to looped/cyclic peptides of protein X5 of SARS-CoV Urbani [1]: 0.3; Binding of serum 2 to linear peptides of protein X5 of SARS-CoV Urbani [1]: 0.9; Binding of serum 2 to looped/cyclic peptides of protein X5 of SARS-CoV Urbani [1]: 1.1; Binding of serum 6 to linear peptides of protein X5 of SARS-CoV Urbani [1]: 0.6; Binding of serum 6 to looped/cyclic peptides of protein X5 of SARS-CoV Urbani [1]: 0.4; Binding of serum 37 to linear peptides of protein X5 of SARS-CoV Urbani [1]: 0.7; Binding of serum 37 to looped/cyclic peptides of protein X5 of SARS-CoV Urbani [1]: 0.6; Binding of serum 62 to linear peptides of protein X5 of SARS-CoV Urbani [1]: 0.8; Binding of serum 62 to looped/cyclic peptides of protein X5 of SARS-CoV Urbani [1]: 0.8; Binding of serum London to linear peptides of protein X5 of SARS-CoV Urbani [1]: 0.7; Binding of serum London to looped/cyclic peptides of protein X5 of SARS-CoV Urbani [1]: 0.2; Binding of serum SARS-green to linear peptides of protein X5 of SARS-CoV Urbani [1]: 0.7; Binding of serum SARS-green to looped/cyclic peptides of protein X5 of SARS-CoV Urbani [1]: 0.3; Binding of serum SARS-yellow to linear peptides of protein X5 of SARS-CoV Urbani [1]: 0.4; Binding of serum SARS-yellow to looped/cyclic peptides of protein X5 of SARS-CoV Urbani [1]: 0.5; Rabbit serum linear peptides [3]: 0.6; Rabbit serum looped peptides [3]: 0.7
